Experimental data published in PubChem BioAssay (NCI).
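Cultured in 96-well plates, cells were exposed to test compound for 48 hours across five concentrations. At the GI50, growth is halved. TGI: total growth inhibition.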

Key:
Experiment in all cases: NCI anticancer screen, dose series, 48 h
OVCAR-3 ovarian = tested on: OVCAR-3 ovarian
HCT-15 colon = tested on: HCT-15 colon
M14 melanoma = tested on: M14 melanoma
T-47D breast = tested on: T-47D breast
SNB-19 CNS = tested on: SNB-19 CNS
CCRF-CEM leukemia = tested on: CCRF-CEM leukemia
SF-268 CNS = tested on: SF-268 CNS
A498 renal = tested on: A498 renal
UACC-257 melanoma = tested on: UACC-257 melanoma
RXF 393 renal = tested on: RXF 393 renal

| Structure (SMILES) | GI50 (OVCAR-3 ovarian) [µM] | TGI (OVCAR-3 ovarian) [µM] | GI50 (HCT-15 colon) [µM] | TGI (HCT-15 colon) [µM] | GI50 (M14 melanoma) [µM] | TGI (M14 melanoma) [µM] | GI50 (T-47D breast) [µM] | TGI (T-47D breast) [µM] | GI50 (SNB-19 CNS) [µM] | TGI (SNB-19 CNS) [µM] | GI50 (CCRF-CEM leukemia) [µM] | TGI (CCRF-CEM leukemia) [µM] | GI50 (SF-268 CNS) [µM] | TGI (SF-268 CNS) [µM] | GI50 (A498 renal) [µM] | TGI (A498 renal) [µM] | GI50 (UACC-257 melanoma) [µM] | TGI (UACC-257 melanoma) [µM] | GI50 (RXF 393 renal) [µM] | TGI (RXF 393 renal) [µM] |
| --- | --- | --- | --- | --- | --- | --- | --- | --- | --- | --- | --- | --- | --- | --- | --- | --- | --- | --- | --- | --- |
| Cc1csc(Nc2nc(-c3cccc(Br)c3)nc(C(Cl)(Cl)Cl)n2)n1 | 1.11 | 3.24 | 4.95 | > 100 | > 100 | > 100 | 1.38 | > 26.8 | 2.87 | > 100 | > 100 | > 100 | 4.65 | > 100 | 1.06 | 2.47 | 3.34 | > 100 | 1 | 4.04 |
| CC(CC(=O)O)C(C(=O)O)C(=O)O (stereo not drawn) |  | > 100 |  | > 100 |  | > 100 |  | > 100 |  | > 100 |  | > 100 |  | > 100 |  | > 100 |  | > 100 |  | > 100 |
| O=C(CC(O)(C(F)(F)F)C(F)(F)F)c1cc(CC(=O)C(O)(C(F)(F)F)C(F)(F)F)cc(CC(=O)C(O)(C(F)(F)F)C(F)(F)F)c1 |  | 3.52 |  | > 8.79 |  | > 9.09 |  | 4.26 |  | > 10 |  | > 10 |  | > 10 |  | 5.43 |  | 4.56 |  | 4.43 |
| COc1cc(C2c3cc4c(cc3C(O)C(CO)C2CO)OCO4)cc(OC)c1OC (stereo not drawn) | 0.372 | 1.94 | 4.41 | > 100 | 0.706 | > 100 |  | > 100 | 2.6 | > 100 | 0.787 | > 100 | 3.32 | > 100 | 0.321 |  | 0.67 | > 100 | 1.12 | > 100 |
| COC1C(O)=C2C(=O)O/C(C)=C/C=C/C=C/C=C\CC(c3ccccc3)NC(=O)\C=C/C=C\C=C\C=C\[C@@]2(C)[C@@H]1O (stereo partly drawn) |  | 0.271 |  | 0.0834 |  | 0.35 |  | 0.158 |  | 0.141 |  | 0.0577 |  | 0.318 |  | 0.318 |  | 0.165 |  | 0.0962 |
| CS(=O)(=O)CCCn1c(=O)c(Oc2ccc(F)cc2F)cc2cnc(NC3CCOCC3)nc21 | > 25 | > 25 | > 25 | > 25 | > 25 | > 25 | > 25 | > 25 | > 25 | > 25 | > 25 | > 25 | > 25 | > 25 | > 25 | > 25 | > 25 | > 25 | > 25 | > 25 |
| Nc1nccc2c1ccn2-c1ccc(NC(=O)c2ccc(N3CCOCC3)c(C(F)(F)F)c2)cc1 | 1.38 | 15.7 | 0.811 | 10.5 | 0.622 | 2.54 | 2.19 | 19.2 | 0.61 | 8.13 | 0.452 | > 100 | 0.879 | 15.1 | 0.402 | 2.94 | 2.15 | 8.61 | 0.158 | 0.378 |
| CC1(C)OCCn2c1nc1c(N3CCOCC3)nc(-c3cnc(N)nc3)nc12 | 0.308 | > 31.5 | 0.241 | > 100 | 0.316 | > 100 | 0.0325 | 0.248 | 1.01 | > 30.2 | 1.06 | > 100 | 0.426 | > 100 | 0.133 | 0.627 | 0.197 | 1.97 | 0.211 | 1.69 |
| COc1ccncc1C#Cc1cncc(C(=O)Nc2ccc(CN3CCN(C)CC3)c(C(F)(F)F)c2)c1 | 21.6 | 89.7 | 19.8 | > 100 | 10.1 | 39.6 | 89.1 | > 100 | 47 | > 100 | 28.4 | > 100 | 17.5 | 66.2 | 17.4 | 79.5 | 21.5 | > 100 | 15.7 | 49.5 |
| COc1ccc(-c2oc(=O)ccc2-c2cc(OC)c(OC)c(OC)c2)cc1F | 5.84 | 71.9 | 5.42 | > 100 | 14.1 | > 100 | 23.9 | > 100 | 53.2 | > 100 | 26.6 | > 100 | 33.6 | > 100 | 25.1 | 92.9 | 31.5 | > 100 | 11.6 | 29.1 |
| CCCNC(=S)/N=C/c1c(O)c2ccccc2[nH]c1=O |  | > 100 |  | > 100 |  | > 100 |  | > 100 |  | > 100 |  | > 100 |  | > 100 |  | > 100 |  | > 100 |  | > 100 |
